Consider 3 compounds from patent US12109197B2, “Combinations of β-lactam compounds and probenecid and uses thereof” (Iterum Therapeutics International Limited, priority 2018, dated 2024).

The procedure of series [1]:
Subjects were to be dosed twice a day (every 12 hours) for 6 days and on Day 7 they were to be dosed once. All treatment groups could be run in parallel or sequentially. Subjects were allocated based on the randomization list. Randomization numbers were assigned sequentially as subjects entered into groups on the basis of their order of entry into the study. Subjects who withdrew for reasons unrelated to safety may have been replaced. Blood samples were obtained at prespecified intervals in order to characterize pharmacokinetics.

The conditions of series [2]: Dacey and Sande 1974; cited from earlier work.
Series [3] is described as follows: Multiple-dose study of sulopenem delivered intravenously: plasma pharmacokinetics. As to conditions: for AUC(0-inf) / AUC(0-t) / Cmax / half-life / Tmax / CL renal: human, plasma, iv; for Tmax: median [range]; for Rac: accumulation ratio. It counts as in vivo, human. The procedure: The pharmacokinetics of sulopenem delivered intravenously were studied in a randomized, investigator-blind, subject-blind, sponsor-open, placebo-controlled, multiple-dose study of sulopenem. There were 5 cohorts dosed. Each subject was dosed for up to 14 days. Each cohort consisted of 10 subjects.

Another series relates to Porphyromonas gingivalis. As to conditions: Ednie and Appelbaum 2009; cited from earlier work.
Where [4] appears, read: 800 mg, intravenous 800 mg (3 h BID), Day 1.
Where [5] appears, read: 800 mg, intravenous 800 mg (3 h BID), Day 14.
Where [6] appears, read: 1200 mg, intravenous 1200 mg (1 h BID), Day 1.
The mark [7] stands for this setting: 1200 mg, intravenous 1200 mg (1 h BID), Day 14.
The mark [8] stands for this setting: 1200 mg, intravenous 1200 mg ([…] BID), Day 1.
The mark [9] stands for this setting: 1200 mg, intravenous 1200 mg ([…] BID), Day 14.
The mark [10] stands for this setting: 1600 mg, intravenous 1600 mg (1.5 h BID), Day 1.
Setting [11] is: 1600 mg, intravenous 1600 mg (1.5 h BID), Day 14.
[12] abbreviates: 2000 mg, intravenous 2000 mg (1.5 h BID), Day 1.

Structures are written as SMILES. Where two headings read alike, the source gives them in different places.

As to `CCOC(C)(C)C(=O)OCOC(=O)C1=C(S[C@H]2CC[S@@+]([O-])C2)S[C@@H]2[C@@H]([C@@H](C)O)C(=O)N12` [Compound III-1b], the “AUC of sulopenem on Day 7 compared with Day 1” value is “lower than that on Day 1” in series [1] (administered alone through the oral route) and “increased on Day 7 beyond that seen on Day 1” in series [1] (co-administered with probenecid).
For the compound `CCCN(CCC)S(=O)(=O)c1ccc(C(=O)O)cc1` [probenecid], the “effect on concentrations of β-lactam compounds in the cerebrospinal fluid” value in series [2] is given as “increase the concentrations of β-lactam compounds in the cerebrospinal fluid”.
`C[C@@H](O)[C@H]1C(=O)N2C(C(=O)O)=C(S[C@H]3CC[S@@+]([O-])C3)S[C@H]12` [sulopenem]: the AUC(0-inf) in series [3] (setting [4]) is 22400 ng·h/mL; in series [3] (setting [5]) it was 26500 ng·h/mL; in series [3] (setting [6]), 42300 ng·h/mL; in series [3] (setting [7]) it was 41400 ng·h/mL; in series [3] (setting [8]) it was 41900 ng·h/mL; in series [3] (setting [9]), 34600 ng·h/mL. Further, the AUC(0-inf) in series [3] (setting [10]) was 67300 ng·h/mL; in series [3] (setting [11]), 54900 ng·h/mL; in series [3] (setting [12]), 90300 ng·h/mL. Besides, the AUC(0-t) in series [3] (setting [4]) amounted to 22300 ng·h/mL; in series [3] (setting [5]), 26400 ng·h/mL; in series [3] (setting [6]), 42200 ng·h/mL; in series [3] (setting [7]), 41300 ng·h/mL; in series [3] (setting [8]), 41800 ng·h/mL; in series [3] (setting [9]), 34500 ng·h/mL. Besides, the values for the AUC(0-t) in series [3] (setting [10]), in series [3] (setting [11]) and in series [3] (setting [12]) were 67100 ng·h/mL, 54700 ng·h/mL and 90100 ng·h/mL, respectively. In addition, the Cmax in series [3] (setting [4]) is 7270 ng/mL; in series [3] (setting [5]), 8970 ng/mL; in series [3] (setting [6]) it was 32500 ng/mL; in series [3] (setting [7]), 30700 ng/mL; in series [3] (setting [8]), 16600 ng/mL; in series [3] (setting [9]), 13500 ng/mL. For the same compound, the Cmax in series [3] (setting [10]) was determined as 40100 ng/mL; in series [3] (setting [11]), 31800 ng/mL; in series [3] (setting [12]), 51500 ng/mL. Moreover, the half-life is 49.5 min in series [3] (setting [4]); 53.3 min in series [3] (setting [5]); 62.4 min in series [3] (setting [6]); 63 min in series [3] (setting [7]); 67.2 min in series [3] (setting [8]); 60.6 min in series [3] (setting [9]). Moreover, the half-life in series [3] (setting [10]) is 62.4 min; in series [3] (setting [11]), 72 min; in series [3] (setting [12]) it was 67.2 min. For the same compound, the Tmax in series [3] (setting [4]) stood at 2 h; in series [3] (setting [5]) it was 2 h; in series [3] (setting [6]), 1 h; in series [3] (setting [7]), 1 h; in series [3] (setting [8]), 2.25 h; in series [3] (setting [9]) it was 2 h. Also, the values for the Tmax in series [3] (setting [10]), in series [3] (setting [11]) and in series [3] (setting [12]) were 1.5 h, 1.25 h and 1.5 h, respectively. Besides, the CL renal in series [3] (setting [5]) came to 257 mL/min; in series [3] (setting [7]) it was 245 mL/min; in series [3] (setting [9]), 313 mL/min; in series [3] (setting [11]), 327 mL/min. Moreover, the Rac was 1.15 (29) in series [3] (intravenous 800 mg (3 h BID), Day 14); 0.928 (17) in series [3] (intravenous 1200 mg (1 h BID), Day 14); 0.841 (9) in series [3] (intravenous 1200 mg ([…] BID), Day 14); 0.791 (9) in series [3] (intravenous 1600 mg (1.5 h BID), Day 14). Further, the “activity against Porphyromonas gingivalis” value in the series on Porphyromonas gingivalis is reported as “active”.
